According to US8124129B2, “Crystalline form of the compound A-348441” (Karo Bio AB, priority 2005, dated 2012):

Key:
Assay type in all cases: physicochemical
[1] = Stability study under accelerated conditions: moisture content by Karl Fischer analysis
Description: (§1) Three samples of Compound I were packaged separately in double polyethylene bags in a small cardboard box, which were stored in a stability chamber under accelerated conditions (40° C./75% […] Humidity). Sample 1 was 10 g of crystalline Form 1; Sample 2 was 2 g of amorphous product prepared as described in Example 1B above; and Sample 3 was 2 g of crystalline Form 2 made as described in Example 1A above.
(§2) Impurity profile, moisture content and crystalline form were measured on the samples, and then again approximately 3 months later for Sample 1, and 2 months later for Samples 2 and 3.
Karl Fischer analysis was used to measure moisture content.

[2] = Stability study under accelerated conditions: impurity profile / overall purity by HPLC; settings: for overall purity (HPLC) after storage: 2 months; for overall purity (HPLC), initial: before storage
Description: as §2
The impurity profile was measured by HPLC.

[3] = Stability study under accelerated conditions: crystalline form by differential scanning calorimetry; settings: 3 months, 40° C./75% Residual Humidity
Description: as §1, §2

[4] = Solubility (general statement)
[5] = 40° C./75% Residual Humidity, double polyethylene bags
[6] = compared with crystalline form of Example 1S of WO 2004/000869 and amorphous form, general statement

Row | Compound | water uptake (Karl Fischer) after storage ([1]; 2 months, 40° C./75% Residual Humidity, relative to Samples 1 and 2) | overall purity (HPLC) after storage [2, 5] | overall purity (HPLC), initial [2] | change in crystalline form (DSC thermograms) [3] | water uptake (Karl Fischer) after storage ([1]; 3 months, 40° C./75% Residual Humidity) | hygroscopicity [1, 6] | change of overall purity (HPLC) after storage ([2]; 3 months, 40° C./75% Residual Humidity, double polyethylene bags) | stability under accelerated conditions, overall conclusion ([2]; compared with Compound I in other forms) | stability [2, 6] | solubility [4] | water content (Karl Fischer) after storage ([1]; 2 months, 40° C./75% Residual Humidity) | moisture content, initial ([1]; before storage)
1 | CC#C[C@]1(O)CC[C@H]2[C@@H]3CCC4=CC(=O)CCC4=C3[C@@H](c3ccc(N(C)CCO[C@H]4CC[C@@]5(C)[C@@H](C4)C[C@@H](O)[C@@H]4[C@@H]5C[C@H](O)[C@]5(C)[C@@H]([C@H](C)CCC(=O)O)CC[C@@H]45)cc3)C[C@@]21C [Sample 3, (3β,5β,7α,12α)-7,12-dihydroxy-3-{2-[{4-[17β-hydroxy-3-oxo-17α-prop-1-ynylestra-4,9-dien-11β-yl]phenyl}(methyl)amino]ethoxy}cholan-24-oic acid] | intermediate behaviour | 90.7% | 93.2% | – | – | – | – | – | – | – | – | –
2 | CC#C[C@]1(O)CC[C@H]2[C@@H]3CCC4=CC(=O)CCC4=C3[C@@H](c3ccc(N(C)CCO[C@H]4CC[C@@]5(C)[C@@H](C4)C[C@@H](O)[C@@H]4[C@@H]5C[C@H](O)[C@]5(C)[C@@H]([C@H](C)CCC(=O)O)CC[C@@H]45)cc3)C[C@@]21C [Sample 1, (3β,5β,7α,12α)-7,12-dihydroxy-3-{2-[{4-[17β-hydroxy-3-oxo-17α-prop-1-ynylestra-4,9-dien-11β-yl]phenyl}(methyl)amino]ethoxy}cholan-24-oic acid] | – | – | – | no change in crystalline form | little water uptake | lower hygroscopicity | did not change | more stable | improved stability | low solubility | – | –
3 | CC#C[C@]1(O)CC[C@H]2[C@@H]3CCC4=CC(=O)CCC4=C3[C@@H](c3ccc(N(C)CCO[C@H]4CC[C@@]5(C)[C@@H](C4)C[C@@H](O)[C@@H]4[C@@H]5C[C@H](O)[C@]5(C)[C@@H]([C@H](C)CCC(=O)O)CC[C@@H]45)cc3)C[C@@]21C [Sample 2, (3β,5β,7α,12α)-7,12-dihydroxy-3-{2-[{4-[17β-hydroxy-3-oxo-17α-prop-1-ynylestra-4,9-dien-11β-yl]phenyl}(methyl)amino]ethoxy}cholan-24-oic acid] | – | 96.7% | 97.3% | – | – | – | – | – | – | – | 5% | anhydrous
